doi:10.1101/2023.10.20.563248v1 (biorxiv, 2023)

Columns and labels:
Conditions in all cases: 1 µM; inhibitor
STK25 = STK25 (Homo sapiens, UniProt O00506)
RPS6KA4 = RPS6KA4 (Homo sapiens, UniProt O75676)
ARK5 = ARK5 (Homo sapiens, UniProt O60285)
CDK19 = CDK19 (Homo sapiens, UniProt Q9BWU1)
BRAF = BRAF (Homo sapiens, UniProt P15056)
HIPK2 = HIPK2 (Homo sapiens, UniProt Q9H2X6)
MAPKAPK3 = MAPKAPK3 (Homo sapiens, UniProt Q16644)
DCAMKL2 = DCAMKL2 (Homo sapiens, UniProt Q8N568)
CAMK2G = CAMK2G (Homo sapiens, UniProt Q13555)
CAMK2G, sequence (Q13555 whole entry): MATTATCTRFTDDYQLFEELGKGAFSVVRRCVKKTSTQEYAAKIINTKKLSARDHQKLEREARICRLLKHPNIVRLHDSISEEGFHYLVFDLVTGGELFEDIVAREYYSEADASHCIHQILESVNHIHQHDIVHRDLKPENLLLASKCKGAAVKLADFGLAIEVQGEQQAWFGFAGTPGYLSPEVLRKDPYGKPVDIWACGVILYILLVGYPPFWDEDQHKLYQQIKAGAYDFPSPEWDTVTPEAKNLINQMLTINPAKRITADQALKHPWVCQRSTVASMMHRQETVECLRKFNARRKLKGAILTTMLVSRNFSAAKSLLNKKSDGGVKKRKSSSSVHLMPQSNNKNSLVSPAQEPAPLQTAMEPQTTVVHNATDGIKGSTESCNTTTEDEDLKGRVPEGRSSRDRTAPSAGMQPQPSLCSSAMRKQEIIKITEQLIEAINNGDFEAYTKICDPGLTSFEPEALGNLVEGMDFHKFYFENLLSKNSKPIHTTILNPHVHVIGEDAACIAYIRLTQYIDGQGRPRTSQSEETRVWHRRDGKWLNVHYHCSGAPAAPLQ

ACVR1B = ACVR1B (Homo sapiens, UniProt P36896)
ACVR1B, sequence (P36896 whole entry): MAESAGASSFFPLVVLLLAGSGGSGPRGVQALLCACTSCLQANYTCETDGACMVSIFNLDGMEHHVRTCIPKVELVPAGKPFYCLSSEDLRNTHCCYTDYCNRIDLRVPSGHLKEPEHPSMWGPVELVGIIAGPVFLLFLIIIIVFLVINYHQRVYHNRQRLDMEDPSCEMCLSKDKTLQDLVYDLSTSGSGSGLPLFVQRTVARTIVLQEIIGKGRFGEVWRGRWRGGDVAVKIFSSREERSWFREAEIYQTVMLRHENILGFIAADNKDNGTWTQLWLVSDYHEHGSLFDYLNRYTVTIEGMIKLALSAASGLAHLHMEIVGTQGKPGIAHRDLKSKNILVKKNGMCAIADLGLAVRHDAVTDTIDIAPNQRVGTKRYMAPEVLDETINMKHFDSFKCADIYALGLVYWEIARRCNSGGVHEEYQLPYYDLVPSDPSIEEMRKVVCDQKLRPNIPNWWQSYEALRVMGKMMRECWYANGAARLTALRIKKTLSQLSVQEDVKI

PKCnu = PKCnu (Homo sapiens, UniProt O94806)
SNK = SNK (Homo sapiens, UniProt Q9NYY3)
PRK2 = PRK2 (Homo sapiens, UniProt Q16513)
PAK2 = PAK2 (Homo sapiens, UniProt Q13177)
PKCg = PKCg (Homo sapiens, UniProt P05129)
CDK3/CycC = CDK3/CycC (Homo sapiens, UniProt Q00526)
CDK3/CycC, sequence (Q00526 whole entry): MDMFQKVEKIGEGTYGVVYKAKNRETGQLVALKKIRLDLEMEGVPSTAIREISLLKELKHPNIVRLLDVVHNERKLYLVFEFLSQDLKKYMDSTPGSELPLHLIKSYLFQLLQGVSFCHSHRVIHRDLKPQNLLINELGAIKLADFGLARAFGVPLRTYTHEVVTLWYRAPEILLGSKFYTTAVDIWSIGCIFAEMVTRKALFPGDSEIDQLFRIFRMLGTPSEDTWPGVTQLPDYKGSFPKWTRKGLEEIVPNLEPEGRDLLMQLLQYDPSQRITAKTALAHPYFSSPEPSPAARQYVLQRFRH
CDK3/CycC, sequence (P24863 whole entry partner): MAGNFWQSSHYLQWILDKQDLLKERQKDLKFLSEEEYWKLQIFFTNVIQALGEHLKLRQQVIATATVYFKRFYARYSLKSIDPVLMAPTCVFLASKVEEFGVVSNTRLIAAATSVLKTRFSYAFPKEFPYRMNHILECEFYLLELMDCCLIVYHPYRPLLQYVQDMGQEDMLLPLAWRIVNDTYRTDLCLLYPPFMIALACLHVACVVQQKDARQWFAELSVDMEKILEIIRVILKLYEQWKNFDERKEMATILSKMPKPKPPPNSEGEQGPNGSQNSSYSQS

PRKG2 = PRKG2 (Homo sapiens, UniProt Q13237)
CDK2/CycD1 = CDK2/CycD1 (Homo sapiens, UniProt P24941)
TTBK2 = TTBK2 (Homo sapiens, UniProt Q6IQ55)
IKKb = IKKb (Homo sapiens, UniProt O14920)
IKKb, sequence (O14920 whole entry): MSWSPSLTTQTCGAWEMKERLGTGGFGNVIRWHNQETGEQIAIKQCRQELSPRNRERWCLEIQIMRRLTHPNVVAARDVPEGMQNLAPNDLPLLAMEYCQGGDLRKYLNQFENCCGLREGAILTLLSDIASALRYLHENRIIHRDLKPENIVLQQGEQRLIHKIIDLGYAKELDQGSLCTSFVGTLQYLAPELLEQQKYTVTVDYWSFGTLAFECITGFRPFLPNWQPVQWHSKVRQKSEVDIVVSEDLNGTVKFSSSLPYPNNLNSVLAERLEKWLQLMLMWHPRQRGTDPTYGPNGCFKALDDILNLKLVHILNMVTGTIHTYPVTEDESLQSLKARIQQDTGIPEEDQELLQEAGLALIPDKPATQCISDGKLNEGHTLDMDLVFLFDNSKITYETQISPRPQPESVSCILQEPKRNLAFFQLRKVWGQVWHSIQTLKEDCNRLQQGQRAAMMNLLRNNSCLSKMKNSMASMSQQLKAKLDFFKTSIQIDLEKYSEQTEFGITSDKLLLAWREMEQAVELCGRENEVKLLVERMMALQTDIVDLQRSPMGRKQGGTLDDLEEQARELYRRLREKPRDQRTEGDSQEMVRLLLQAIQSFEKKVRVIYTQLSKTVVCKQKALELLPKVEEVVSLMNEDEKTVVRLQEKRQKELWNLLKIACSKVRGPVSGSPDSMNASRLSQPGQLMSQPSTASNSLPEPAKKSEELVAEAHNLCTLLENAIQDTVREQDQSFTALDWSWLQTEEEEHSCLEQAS

MAP3K10 = MAP3K10 (Homo sapiens, UniProt Q02779)
FLT3 = FLT3 (Homo sapiens, UniProt P36888)
FLT3, sequence (P36888 whole entry): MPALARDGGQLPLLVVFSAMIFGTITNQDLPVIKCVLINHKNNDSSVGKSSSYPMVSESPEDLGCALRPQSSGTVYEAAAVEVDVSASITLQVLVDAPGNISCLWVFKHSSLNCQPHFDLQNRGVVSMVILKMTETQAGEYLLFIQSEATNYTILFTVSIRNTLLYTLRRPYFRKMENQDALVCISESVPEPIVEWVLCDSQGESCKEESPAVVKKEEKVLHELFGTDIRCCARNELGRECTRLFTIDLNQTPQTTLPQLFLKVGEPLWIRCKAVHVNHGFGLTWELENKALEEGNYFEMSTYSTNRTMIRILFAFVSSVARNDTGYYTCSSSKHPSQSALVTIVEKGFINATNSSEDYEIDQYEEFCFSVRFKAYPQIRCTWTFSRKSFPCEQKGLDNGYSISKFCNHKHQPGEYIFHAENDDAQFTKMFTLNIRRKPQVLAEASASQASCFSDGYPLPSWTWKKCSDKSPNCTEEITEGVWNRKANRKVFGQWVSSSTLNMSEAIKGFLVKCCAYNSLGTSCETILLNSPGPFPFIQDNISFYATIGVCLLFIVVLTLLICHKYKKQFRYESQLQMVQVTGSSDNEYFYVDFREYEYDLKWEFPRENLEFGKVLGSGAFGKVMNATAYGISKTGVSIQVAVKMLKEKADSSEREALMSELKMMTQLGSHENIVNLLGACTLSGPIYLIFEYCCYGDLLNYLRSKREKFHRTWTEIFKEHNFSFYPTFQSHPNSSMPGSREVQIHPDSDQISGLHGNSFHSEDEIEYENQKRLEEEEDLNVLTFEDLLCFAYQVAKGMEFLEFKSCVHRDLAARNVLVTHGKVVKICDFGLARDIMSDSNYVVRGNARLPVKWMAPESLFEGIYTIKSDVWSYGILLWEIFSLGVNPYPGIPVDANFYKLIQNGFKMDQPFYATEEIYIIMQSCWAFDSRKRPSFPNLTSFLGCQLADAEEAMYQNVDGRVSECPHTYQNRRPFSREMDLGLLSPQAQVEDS

TBK1 = TBK1 (Homo sapiens, UniProt Q9UHD2)
MEK2 = MEK2 (Homo sapiens, UniProt P36507)
MEK2, sequence (P36507 whole entry): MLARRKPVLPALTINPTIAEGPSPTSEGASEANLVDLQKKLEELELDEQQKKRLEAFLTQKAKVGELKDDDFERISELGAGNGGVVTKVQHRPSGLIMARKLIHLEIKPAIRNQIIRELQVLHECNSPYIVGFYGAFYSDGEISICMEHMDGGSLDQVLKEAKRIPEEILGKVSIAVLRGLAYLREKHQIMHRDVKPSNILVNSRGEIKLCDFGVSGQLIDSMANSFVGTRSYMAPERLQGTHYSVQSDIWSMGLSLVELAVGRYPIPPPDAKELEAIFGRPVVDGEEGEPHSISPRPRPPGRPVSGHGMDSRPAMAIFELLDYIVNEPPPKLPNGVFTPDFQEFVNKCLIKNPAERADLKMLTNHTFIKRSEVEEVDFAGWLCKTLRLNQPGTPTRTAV

CDK2/CycA2 = CDK2/CycA2 (Homo sapiens, UniProt P24941)
ROCK2 = ROCK2 (Homo sapiens, UniProt O75116)
ZAK = ZAK (Homo sapiens, UniProt Q9NYL2)
EPHA7 = EPHA7 (Homo sapiens, UniProt Q15375)
LKB1/MO25a/STRADa = LKB1/MO25a/STRADa (Homo sapiens, UniProt Q15831)
DMPK = DMPK (Homo sapiens, UniProt Q09013)
PKCbeta2 = PKCbeta2 (Homo sapiens, UniProt P05771)

DCAMKL2, sequence (Q8N568 whole entry): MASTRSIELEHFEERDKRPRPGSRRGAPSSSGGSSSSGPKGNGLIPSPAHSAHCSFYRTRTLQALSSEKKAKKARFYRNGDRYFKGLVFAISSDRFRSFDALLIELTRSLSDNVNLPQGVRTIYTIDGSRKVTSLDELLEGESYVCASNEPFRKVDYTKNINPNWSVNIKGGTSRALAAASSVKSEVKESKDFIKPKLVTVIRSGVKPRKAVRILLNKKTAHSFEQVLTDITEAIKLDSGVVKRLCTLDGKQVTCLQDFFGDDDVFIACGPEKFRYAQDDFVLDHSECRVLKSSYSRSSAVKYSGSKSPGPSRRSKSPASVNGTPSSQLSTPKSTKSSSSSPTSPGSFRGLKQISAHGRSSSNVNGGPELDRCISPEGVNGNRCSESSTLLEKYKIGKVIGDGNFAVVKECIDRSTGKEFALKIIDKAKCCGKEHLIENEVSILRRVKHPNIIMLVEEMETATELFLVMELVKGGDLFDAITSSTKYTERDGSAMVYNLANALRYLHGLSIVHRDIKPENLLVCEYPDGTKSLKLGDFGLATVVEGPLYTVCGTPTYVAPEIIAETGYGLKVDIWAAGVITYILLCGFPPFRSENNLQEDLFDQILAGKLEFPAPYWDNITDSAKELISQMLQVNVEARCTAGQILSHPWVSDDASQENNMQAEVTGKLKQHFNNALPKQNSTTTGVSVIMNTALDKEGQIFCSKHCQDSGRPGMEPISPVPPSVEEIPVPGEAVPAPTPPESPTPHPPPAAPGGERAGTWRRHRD
MAPKAPK3, sequence (Q16644 whole entry): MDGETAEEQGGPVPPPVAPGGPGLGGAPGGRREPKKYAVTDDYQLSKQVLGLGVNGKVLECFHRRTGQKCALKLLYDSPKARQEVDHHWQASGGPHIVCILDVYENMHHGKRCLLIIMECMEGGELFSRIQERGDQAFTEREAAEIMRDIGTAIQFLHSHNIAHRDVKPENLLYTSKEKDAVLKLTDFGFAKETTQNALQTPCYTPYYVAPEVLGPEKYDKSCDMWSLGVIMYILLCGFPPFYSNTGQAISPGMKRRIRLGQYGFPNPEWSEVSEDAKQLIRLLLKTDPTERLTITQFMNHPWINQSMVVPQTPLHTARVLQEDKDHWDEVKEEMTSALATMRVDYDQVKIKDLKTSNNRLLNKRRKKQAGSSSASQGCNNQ

O=C1NCCCCCNc2nc(c3ccccc3n2)Nc2cc1[nH]n2 [21c, (Z)-3^1H-2,5,11-triaza-1(4,2)-quinazolina-3(3,5)-pyrazolacycloundecaphan-4-one]
21c Remaining activity, percent of control [%] (STK25): 57.2% | 21c Remaining activity, percent of control [%] (RPS6KA4): 92.5% | 21c Remaining activity, percent of control [%] (ARK5): 86.3% | 21c Remaining activity, percent of control [%] (CDK19): 92.8% | 21c Remaining activity, percent of control [%] (BRAF): 89.7% | 21c Remaining activity, percent of control [%] (HIPK2): 74.8% | 21c Remaining activity, percent of control [%] (MAPKAPK3): 95.7% | 21c Remaining activity, percent of control [%] (DCAMKL2): 99.3% | 21c Remaining activity, percent of control [%] (CAMK2G): 132.6% | 21c Remaining activity, percent of control [%] (ACVR1B): 85.2% | 21c Remaining activity, percent of control [%] (PKCnu): 78.1% | 21c Remaining activity, percent of control [%] (SNK): 78.3% | 21c Remaining activity, percent of control [%] (PRK2): 89.5% | 21c Remaining activity, percent of control [%] (PAK2): 113.2% | 21c Remaining activity, percent of control [%] (PKCg): 79.4% | 21c Remaining activity, percent of control [%] (CDK3/CycC): 87.0% | 21c Remaining activity, percent of control [%] (PRKG2): 93.5% | 21c Remaining activity, percent of control [%] (CDK2/CycD1): 121.3% | 21c Remaining activity, percent of control [%] (TTBK2): 109.9% | 21c Remaining activity, percent of control [%] (IKKb): 94.0% | 21c Remaining activity, percent of control [%] (MAP3K10): 94.4% | 21c Remaining activity, percent of control [%] (FLT3): 103.4% | 21c Remaining activity, percent of control [%] (TBK1): 111.6% | 21c Remaining activity, percent of control [%] (MEK2): 90.2% | 21c Remaining activity, percent of control [%] (CDK2/CycA2): 106.1% | 21c Remaining activity, percent of control [%] (ROCK2): 89.7% | 21c Remaining activity, percent of control [%] (ZAK): 82.9% | 21c Remaining activity, percent of control [%] (EPHA7): 103.7% | 21c Remaining activity, percent of control [%] (LKB1/MO25a/STRADa): 105.1% | 21c Remaining activity, percent of control [%] (DMPK): 94.3% | 21c Remaining activity, percent of control [%] (PKCbeta2): 100.8%
